Among the data in ChEMBL document CHEMBL3046606, “Synthesis and antifungal activity of novel sulfone derivatives containing 1,3,4-oxadiazole moieties” (Molecules, 2011) are inhibition values, retold here.

The inhibition is the share of the control response that was lost under treatment.

The assay deals with Cytospora. Description: Antifungal activity against Cytospora mandshurica at 50 ug/ml after 5 days by poison plate technique. In kind it is functional. Particulars: 120 h.

For the compound `COc1ccccc1-c1nnc(S(C)(=O)=O)o1`, the inhibition at 50 µg/mL amounted to 91.3%. As for `Cc1ccccc1-c1nnc(S(C)(=O)=O)o1`, the figure is 99.3%.
